Experimental data reported in patent US20080269267A1, “KINASE INHIBITORS USEFUL FOR THE TREATMENT OF MYLEOPROLIFIC DISEASES AND OTHER PROLIFERATIVE DISEASES” (Deciphera Pharmaceuticals, LLC, priority 2007, published 2008).
Counter-ions that a name gives are not always drawn.

Columns and labels:
[1] = biological target: T1, BaF3 cells transfected with T315I p210 BCR-Abl (Homo sapiens, UniProt P00519, T315I, cells depend on it); test: Ba/F3 p210 T315I whole cell proliferation assay (Cell Titer Blue, 72 hours); assay type: cell-based; details: 72 hours incubation; read-out: Ba/F3 p210 T315I whole cell proliferation assay, antiproliferation IC50
T1 construct: fused on or other part: P11274 (Breakpoint cluster region protein)
Protocol: BaF3 cells (parental or transfected with the following: wild type p210 BCR-Abl and T315I p210 BCR-Abl was obtained from Professor Richard Van Etten (New England Medical Center, Boston, Mass.). Briefly, cells were grown in RPMI 1640 supplemented with 10% characterized fetal bovine serum (HyClone, Logan, Utah) at 37 degrees Celsius, 5% CO2, 95% humidity. Cells were allowed to expand until reaching 80% saturation at which point they were subcultured or harvested for assay use.
A serial dilution of test compound was dispensed into a 96 well black clear bottom plate (Corning, Corning, N.Y.). For each cell line, three thousand cells were added per well in complete growth medium. Plates were incubated for 72 hours at 37 degrees Celsius, 5% CO2, 95% humidity. At the end of the incubation period Cell Titer Blue (Promega, Madison, Wis.) was added to each well and an additional 4.5 hour incubation at 37 degrees Celsius, 5% CO2, 95% humidity was performed. Plates were then read on a BMG Fluostar Optima (BMG, Durham, N.C.) using an excitation of 544 nm and an emission of 612 nm. Data was analyzed using Prism software (Graphpad, San Diego, Calif.) to calculate IC50's.

[2] = biological target: B-Raf(V600E) kinase (SEQ ID NO:11) (Homo sapiens, UniProt P15056, V600E); test: B-Raf(V600E) kinase assay (pyruvate kinase/lactate dehydrogenase coupled, MEK1 substrate); details: 1 h preincubation at 30° C., ATP 0.2 mM; read-out: B-Raf V600E Enzyme Assay, biochemical IC50
B-Raf(V600E) kinase (SEQ ID NO:11), sequence (P15056 with tags, fused parts or gaps V600E): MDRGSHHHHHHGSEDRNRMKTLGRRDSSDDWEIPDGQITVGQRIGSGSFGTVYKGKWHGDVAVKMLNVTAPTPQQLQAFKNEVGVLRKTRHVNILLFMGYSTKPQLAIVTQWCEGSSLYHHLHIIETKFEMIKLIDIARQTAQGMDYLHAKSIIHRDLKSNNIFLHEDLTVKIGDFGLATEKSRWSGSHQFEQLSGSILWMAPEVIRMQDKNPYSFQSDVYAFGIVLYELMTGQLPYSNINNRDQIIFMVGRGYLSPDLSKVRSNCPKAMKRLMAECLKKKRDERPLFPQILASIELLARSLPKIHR
Protocol: B-Raf(V600E) Kinase Assay
The activity of B-Raf(V600E) kinase (SEQ ID NO:11) was determined by following the formation of ADP from the reaction through coupling with the pyruvate kinase/lactate dehydrogenase system (e.g., Schindler, et al. Science (2000) 289, 1938-1942). In this assay, the oxidation of NADH (thus the decrease at A340nm) was continuously monitored spectrophotometrically. The reaction mixture (100 μl) contained B-Raf(V600E) kinase (0.34 nM nominal concentration, SEQ ID NO:11), unphosphorylated, full-length MEK1 (42 nM, SEQ ID NO:12), MgCl2 (13 mM), pyruvate kinase (3.5 units), lactate dehydrogenase (5.5 units), phosphoenolpyruvate (1 mM), and NADH (0.28 mM), in 60 mM Tris buffer, containing 0.13% octyl-glucoside and 3.5% DMSO concentration at pH 7.5. The test compounds were incubated with the reaction mixture at 30° C. for 1 h. The reaction was initiated by adding ATP (0.2 mM, final concentration). The absorption at 340 nm was continuously monitored for 3 h at 30° C. on a Polarstar Optima plate reader (BMG). The reaction rate was calculated using the 0.5 h to 1.5 h time frame. Percent inhibition was obtained by comparison of reaction rate with that of a control (i.e. with no test compound). IC50 values were calculated from a series of percent inhibition values determined at a range of inhibitor concentrations using software routines as implemented in the GraphPad Prism software package.

[3] = biological target: T2, T315I Abl kinase (SEQ ID NO:2) (Homo sapiens, UniProt P00519, T315I); test: T315I Abl kinase assay (pyruvate kinase/lactate dehydrogenase coupled); details: 1 h preincubation at 30° C., ATP 500 μM; read-out: Abl T315l Enzyme Assay, biochemical IC50
T2 construct: purchased deCode Genetics
T2 sequence (P00519 with tags, fused parts or gaps T315I): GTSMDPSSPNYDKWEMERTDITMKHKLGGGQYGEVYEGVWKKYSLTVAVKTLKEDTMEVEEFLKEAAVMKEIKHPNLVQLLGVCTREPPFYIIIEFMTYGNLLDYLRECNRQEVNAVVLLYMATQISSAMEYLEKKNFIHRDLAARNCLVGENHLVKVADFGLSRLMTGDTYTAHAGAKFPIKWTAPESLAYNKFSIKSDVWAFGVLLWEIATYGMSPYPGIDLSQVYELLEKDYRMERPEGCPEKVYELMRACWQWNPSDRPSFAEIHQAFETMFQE
Protocol: Abl Kinase (SEQ ID NO:2) Assay
Activity of T315I Abl kinase (SEQ ID NO:2) was determined by following the production of ADP from the kinase reaction through coupling with the pyruvate kinase/lactate dehydrogenase system (e.g., Schindler, et al. Science (2000) 289, 1938-1942). In this assay, the oxidation of NADH (thus the decrease at A340nm) was continuously monitored spectrophometrically. The reaction mixture (100 μl) contained Abl kinase (4.4 nM. […] Abl from deCode Genetics), peptide substrate (EAIYAAPFAKKK, 0.2 mM), MgCl2 (10 mM), pyruvate kinase (4 units), lactate dehydrogenase (0.7 units), phosphoenol pyruvate (1 mM), and NADH (0.28 mM) in 90 mM Tris buffer containing 0.2% octyl-glucoside and 1% DMSO, pH 7.5. Test compounds were incubated with T315I Abl (SEQ ID NO:2) and other reaction reagents at 30° C. for 1 h before ATP (500 μM) was added to start the reaction. The absorption at 340 nm was monitored continuously for 2 hours at 30° C. on Polarstar Optima plate reader (BMG). The reaction rate was calculated using the 1.0 to 2.0 h time frame. Percent inhibition was obtained by comparison of reaction rate with that of a control (i.e. with no test compound). IC50 values were calculated from a series of percent inhibition values determined at a range of inhibitor concentrations using software routines as implemented in the GraphPad Prism software package.

Molecule | GI50 [1] | IC50 [2] | IC50 [3]
Cc1ccc(-n2nc(C(C)C)cc2NC(=O)Nc2ccc(Oc3ccnc(-c4cnn(C)c4)c3)cc2F)cc1C#N [Example 11, 1-(1-(3-cyano-4-methylphenyl)-3-isopropyl-1H-pyrazol-5-yl)-3-(2-fluoro-4-(2-(1-methyl-1H-pyrazol-4-yl)pyridin-4-yloxy)phenyl)urea] | < 100 nM | < 100 nM | < 100 nM
Cc1c(Oc2ccnc(-c3cnn(C)c3)c2)ccc(NC(=O)Nc2cc(C(C)C)nn2-c2cccc(C#N)c2)c1F [Example 12, 1-(1-(3-cyanophenyl)-3-isopropyl-1H-pyrazol-5-yl)-3-(2-fluoro-3-methyl-4-(2-(1-methyl-1H-pyrazol-4-yl)pyridin-4-yloxy)phenyl)urea] | < 100 nM | < 100 nM | < 100 nM
CC(C)c1cc(NC(=O)Nc2ccc(Oc3ccnc(-c4cnn(C)c4)c3)c(F)c2F)n(-c2cccc(C#N)c2)n1 [Example 13, 1-(1-(3-cyanophenyl)-3-isopropyl-1H-pyrazol-5-yl)-3-(2,3-difluoro-4-(2-(1-methyl-1H-pyrazol-4-yl)pyridin-4-yloxy)phenyl)urea] | < 100 nM | < 100 nM | < 100 nM
Cc1ncc(NC(=O)Nc2ccc(Oc3ccnc(-c4cnn(C)c4)c3)cc2F)c(-c2ccccc2)n1 [Example 14, 1-(2-fluoro-4-(2-(1-methyl-1H-pyrazol-4-yl)pyridin-4-yloxy)phenyl)-3-(2-methyl-4-phenylpyrimidin-5-yl)urea] | < 100 nM | < 100000 nM | < 100000 nM
CC(C)c1cc(NC(=O)Nc2ccc(Oc3ccnc(-c4cnn(C)c4)c3)c(F)c2)n(-c2cccc(C#N)c2)n1 [Example 16, 1-(1-(3-cyanophenyl)-3-isopropyl-1H-pyrazol-5-yl)-3-(3-fluoro-4-(2-(1-methyl-1H-pyrazol-4-yl)pyridin-4-yloxy)phenyl)urea] | < 100 nM | < 100 nM | < 100 nM
CCc1cc(NC(=O)Nc2ccc(Oc3ccnc(-c4cnn(C(C)C)c4)c3)cc2F)n(-c2cccc(C#N)c2)n1 [Example 17, 1-(1-(3-cyanophenyl)-3-ethyl-1H-pyrazol-5-yl)-3-(2-fluoro-4-(2-(1-isopropyl-1H-pyrazol-4-yl)pyridin-4-yloxy)phenyl)urea] | < 100 nM | < 10000 nM | < 100 nM
CCc1cc(NC(=O)Nc2ccc(Oc3ccnc(-c4cnn(C)c4)c3)cc2F)n(-c2ccc(CO)cc2)n1 [Example 19, 1-(3-ethyl-1-(4-(hydroxymethyl)phenyl)-1H-pyrazol-5-yl)-3-(2-fluoro-4-(2-(1-methyl-1H-pyrazol-4-yl)pyridin-4-yloxy)phenyl)urea] | < 100 nM | < 1000 nM | < 100 nM

More lines, now with the values ahead:

GI50 [1] | IC50 [2] | IC50 [3] | Molecule
< 100 nM | < 1000 nM | < 100000 nM | 1-(2-tert-butyl-4-(pyridin-3-yl)pyrimidin-5-yl)-3-(2-fluoro-5-(8-methyl-2-(methylamino)-7-oxo-7,8-dihydropyrido[2,3-d]pyrimidin-6-yl)phenyl)urea [Example 10]
< 100 nM | < 100 nM | < 100 nM | CC(C)c1cc(NC(=O)Nc2ccc(Oc3ccnc(-c4cnn(C)c4)c3)cc2F)n(-c2cccc(C#N)c2)n1 [Example 2, 1-(1-(3-cyanophenyl)-3-isopropyl-1H-pyrazol-5-yl)-3-(2-fluoro-4-(2-(1-methyl-1H-pyrazol-4-yl)pyridin-4-yloxy)phenyl)urea]
< 100 nM | < 100 nM | < 100 nM | CC(C)(C)c1cc(NC(=O)Nc2ccc(Oc3ccnc(-c4cn[nH]c4)c3)cc2F)n(-c2cccc(C#N)c2)n1 [Example 3, 1-(4-(2-(1H-pyrazol-4-yl)pyridin-4-yloxy)-2-fluorophenyl)-3-(3-tert-butyl-1-(3-cyanophenyl-1H-pyrazol-5-yl)urea hydrochloride]
< 100 nM | < 100 nM | < 100 nM | Cn1cc(-c2cc(Oc3ccc(NC(=O)Nc4cc(C(C)(C)C)nn4-c4cccc(C#N)c4)c(F)c3)ccn2)cn1 [Example 4, 1-(3-tert-butyl-1-(3-cyanophenyl)-1H-pyrazol-5-yl)-3-(2-fluoro-4-(2-(1-methyl-1H-pyrazol-4-yl)pyridin-4-yloxy)phenyl)urea hydrochloride]
< 100 nM | < 100 nM | < 100 nM | CC(C)c1cc(NC(=O)Nc2ccc(Oc3ccnc(-c4cnn(C)c4)c3)cc2F)n(-c2ccc(F)c(C#N)c2)n1 [Example 5, 1-(1-(3-cyano-4-fluorophenyl)-3-isopropyl-1H-pyrazol-5-yl)-3-(2-fluoro-4-(2-(1-methyl-1H-pyrazol-4-yl)pyridin-4-yloxy)phenyl)urea]
< 100 nM | < 100 nM | < 100 nM | Cn1cc(-c2cc(Oc3ccc(NC(=O)Nc4cc(C(C)(C)C)nn4-c4ccc(C#N)cc4)c(F)c3)ccn2)cn1 [Example 6, 1-(3-tert-butyl-1-(4-cyanophenyl)-1H-pyrazol-5-yl)-3-(2-fluoro-4-(2-(1-methyl-1H-pyrazol-4-yl)pyridin-4-yloxy)phenyl)urea]
< 100 nM | < 100 nM | < 100 nM | Cn1cc(-c2cc(Oc3ccc(NC(=O)Nc4cc(C(C)(C)C)nn4-c4cccc(CO)c4)c(F)c3)ccn2)cn1 [Example 7, 1-(3-tert-butyl-1-(3-(hydroxymethyl)phenyl)-1H-pyrazol-5-yl)-3-(2-fluoro-4-(2-(1-methyl-1H-pyrazol-4-yl)pyridin-4-yloxy)phenyl)urea p-toluenesulfonic acid]
< 100 nM | < 100 nM | < 100 nM | Cn1cc(-c2cc(Oc3ccc(NC(=O)Nc4cc(C(C)(C)C)nn4-c4ccc(CO)cc4)c(F)c3)ccn2)cn1 [Example 8, 1-(3-tert-butyl-1-(4-(hydroxymethyl)phenyl)-1H-pyrazol-5-yl)-3-(2-fluoro-4-(2-(1-methyl-1H-pyrazol-4-yl)pyridin-4-yloxy)phenyl)urea]
< 100 nM | < 1000 nM | < 100 nM | CCc1cc(NC(=O)Nc2ccc(Oc3ccnc(-c4cnn(C)c4)c3)cc2F)n(-c2cccc(C#N)c2)n1 [Example 9, 1-(1-(3-cyanophenyl)-3-ethyl-1H-pyrazol-5-yl)-3-(2-fluoro-4-(2-(1-methyl-1H-pyrazol-4-yl)pyridin-4-yloxy)phenyl)urea]
